Consider 16 molecules from ChEMBL document CHEMBL4732195, “Promising hit compounds against resistant trichomoniasis: Synthesis and antiparasitic activity of 3-(ω-aminoalkoxy)-1-benzyl-5-nitroindazoles” (Bioorg Med Chem Lett, 2021).

Series [1] has as its system Trichomonas vaginalis. Put plainly: Antimicrobial activity against Trichomonas vaginalis JH31A#4 trophozoites assessed as reduction in parasitic growth incubated for 24 hrs by resazurin dye based fluorescence assay. It counts as functional, organism-based. To be noted: JH31A#4, 24 h. (In general: Resazurin is reduced to fluorescent resorufin, in cell work by metabolically active cells.)

Series [2] can be described thus: Selectivity index, ratio of CC50 for African green monkey Vero cells to IC50 for Trichomonas vaginalis IR78 trophozoites. It counts as toxicity. To be noted: read-out: Ratio CC50/IC50.
For series [3], the system named is Trichomonas vaginalis. Put plainly: Antimicrobial activity against Trichomonas vaginalis IR78 trophozoites assessed as reduction in parasitic growth incubated for 24 hrs by resazurin dye based fluorescence assay. It counts as functional, organism-based. To be noted: IR78, 24 h.
Series [4] is described as follows: Cytotoxicity against African green monkey Vero cells. The format is cell-based. The note with it: chlorocebus sabaeus.
Series [5] can be described thus: Selectivity index, ratio of CC50 for African green monkey Vero cells to IC50 for Trichomonas vaginalis JH31A#4 trophozoites. The format is toxicity. To be noted: read-out: Ratio CC50/IC50.

Bounds are passed on as bounds.

Usually IC50 stands for the concentration that inhibits the measured activity by half. Consider `CN(C)CCOc1nn(Cc2ccccc2)c2ccc([N+](=O)[O-])cc12`, for which the IC50 in the series on Trichomonas vaginalis [1] came out at 207 µM.
With `O=[N+]([O-])c1ccc2c(c1)c(OCCCCCBr)nn2Cc1ccccc1`, the IC50 with Trichomonas vaginalis [1] was over 300 µM.
Usually CC50 stands for the concentration that lowers cell viability or growth by half. As for `CN(C)CCCCCOc1nn(Cc2ccccc2)c2ccc([N+](=O)[O-])cc12`, the selectivity ratio was determined as 0.94 in series [2] and 8 in series [5]. Further, the IC50 is 6.5 µM in the series with Trichomonas vaginalis [1] and 55.9 µM with Trichomonas vaginalis [3]. In series [4], this molecule returned a CC50 of 52.3 µM.
For the molecule `CNCCOc1nn(Cc2ccccc2)c2ccc([N+](=O)[O-])cc12`, the selectivity ratio in series [2] was found to be 2.3; in series [5], 10.5. Further, the IC50 was found to be 16.3 µM in the series on Trichomonas vaginalis [1] and 74.7 µM in the series with Trichomonas vaginalis [3]. The molecule further showed a CC50 in series [4] of 171 µM.
`O=C1c2ccccc2C(=O)N1CCCOc1nn(Cc2ccccc2)c2ccc([N+](=O)[O-])cc12`: in the series with Trichomonas vaginalis [1], the IC50 was found to be 70.3 µM.
Same read-out and setting: the result for `O=C1c2ccccc2C(=O)N1CCOc1nn(Cc2ccccc2)c2ccc([N+](=O)[O-])cc12` reads 282 µM.
Consider `NCCCCCOc1nn(Cc2ccccc2)c2ccc([N+](=O)[O-])cc12`, for which the selectivity ratio in series [2] is 1; in series [5], 13.7. Besides, the IC50 came out at 4.2 µM in the series on Trichomonas vaginalis [1] and 59.1 µM in the series on Trichomonas vaginalis [3]. In series [4], this molecule returned a CC50 of 57.7 µM.
On to `O=[N+]([O-])c1ccc2c(c1)c(OCCCCCN1CCCCC1)nn2Cc1ccccc1`, for which the IC50 in the series on Trichomonas vaginalis [1] was 69 µM.
Turning to `O=[N+]([O-])c1ccc2c(c1)c(OCCN1CCCCC1)nn2Cc1ccccc1`, the IC50 with Trichomonas vaginalis [1] worked out at 265 µM.
With `CNCCCCCOc1nn(Cc2ccccc2)c2ccc([N+](=O)[O-])cc12`, the selectivity ratio in series [2] was found to be 48; in series [5], 9.6. Also, the IC50 with Trichomonas vaginalis [1] came to 2.5 µM; in the series with Trichomonas vaginalis [3], 0.5 µM. In series [4], this molecule displayed a CC50 of 24 µM.
On to `O=[N+]([O-])c1ccc2c(c1)c(OCCCN1CCCCC1)nn2Cc1ccccc1`, for which the IC50 with Trichomonas vaginalis [1] was determined as 104 µM.
Consider `NCCCOc1nn(Cc2ccccc2)c2ccc([N+](=O)[O-])cc12`, for which the selectivity ratio in series [2] was determined as 35.6; in series [5] it was 2.4. Also, the IC50 is 19.2 µM with Trichomonas vaginalis [1] and 1.3 µM with Trichomonas vaginalis [3]. This molecule registered a CC50 in series [4] of 46.3 µM.
Consider `O=[N+]([O-])c1ccc2c(c1)c(OCCBr)nn2Cc1ccccc1`, for which the IC50 in the series with Trichomonas vaginalis [1] was over 300 µM.
For `CN(C)CCCOc1nn(Cc2ccccc2)c2ccc([N+](=O)[O-])cc12`, the IC50 in the series on Trichomonas vaginalis [1] worked out at 63.7 µM.
Turning to `NCCOc1nn(Cc2ccccc2)c2ccc([N+](=O)[O-])cc12`, the selectivity ratio in series [2] is over 21; in series [5] it was over 28.6. In addition, the IC50 is 10.5 µM in the series with Trichomonas vaginalis [1] and 14.3 µM in the series with Trichomonas vaginalis [3]. In addition, the CC50 in series [4] was over 300 µM.
On to `Cc1ncc([N+](=O)[O-])n1CCO` [METRONIDAZOLE], for which the selectivity ratio is over 100 in series [2] and over 176 in series [5]. The values for the IC50 in the series on Trichomonas vaginalis [1] and in the series with Trichomonas vaginalis [3] were 1.7 µM and 3 µM, respectively. The cytotoxic concentration (CC50) in series [4] was over 300 µM.
